Results taken from ChEMBL document CHEMBL5715935 (Int J Cancer, 2002).
The source made the active and inactive calls. The calls are words filed in the database; no cut-off is given here.

Legend:
[1] = target: cAMP-dependent protein kinase (PKA) (Homo sapiens) (UniProt P22694+P17612+P22612); test: Inhibition of human PKA at 20 uM; assay type: protein assay
[2] = target: Protein kinase C (PKC) (Homo sapiens) (UniProt O94806+P41743+P17252+P05129+Q05655+P05771+Q05513+Q02156+P24723+Q15139+Q04759); test: Inhibition of human PKC at 20 uM; assay type: protein assay
[3] = target: Mitogen-activated protein kinase 14 (Homo sapiens) (UniProt Q16539); test: Inhibition of human SAPK2A using myelin as substrate at 20 uM in presence of gamma-32P-ATP by scintillation counter analysis
A549 = test: Cytotoxicity against p53 wild-type human A549 cells assessed as inhibition of cell proliferation incubated for 72 hrs by MTT assay; assay type: functional, cell-based; settings: A549, 72 h
ChaGo-K-1 = test: Cytotoxicity against human ChaGo-K-1 cells assessed as inhibition of cell proliferation incubated for 72 hrs by MTT assay; assay type: functional, cell-based; settings: ChaGo-K-1, 72 h
NCI-H69 = test: Cytotoxicity against p53 mutant human NCI-H69 cells assessed as inhibition of cell proliferation incubated for 72 hrs by MTT assay; assay type: functional, cell-based; settings: NCI-H69, 72 h
NCI-H460 = test: Cytotoxicity against p53 wild-type human NCI-H460 cells assessed as inhibition of cell proliferation incubated for 72 hrs by MTT assay; assay type: functional, cell-based; settings: NCI-H460, 72 h
LoVo [4] = test: Cytotoxicity against p53 wild-type human LoVo cells assessed as inhibition of cell proliferation incubated for 72 hrs by MTT assay; assay type: functional, cell-based
HCT-15 = test: Cytotoxicity against p53 mutant human HCT-15 cells assessed as inhibition of cell proliferation incubated for 72 hrs by MTT assay; assay type: functional, cell-based; settings: HCT-15, 72 h
HT-29 = test: Cytotoxicity against p53 mutant human HT-29 cells assessed as inhibition of cell proliferation incubated for 72 hrs by MTT assay; assay type: functional, cell-based; settings: HT-29, 72 h
A498 = test: Cytotoxicity against p53 wild-type human A498 cells assessed as inhibition of cell proliferation incubated for 72 hrs by MTT assay; assay type: functional, cell-based; settings: A498, 72 h
ACHN = test: Cytotoxicity against p53 wild-type human ACHN cells assessed as inhibition of cell proliferation incubated for 72 hrs by MTT assay; assay type: functional, cell-based
HT-1376 = test: Cytotoxicity against p53 mutant human HT-1376 cells assessed as inhibition of cell proliferation incubated for 72 hrs by MTT assay; assay type: functional, cell-based; settings: HT-1376, 72 h
MES-SA = test: Cytotoxicity against human MES-SA cells assessed as inhibition of cell proliferation incubated for 72 hrs by MTT assay; assay type: functional, cell-based
MES-SA/Dx5 [5] = test: Cytotoxicity against human MES-SA/Dx5 cells assessed as inhibition of cell proliferation incubated for 72 hrs by MTT assay; assay type: functional, cell-based; settings: MES-SA/Dx5, 72 h
HepG2 = test: Cytotoxicity against p53 wild-type human HepG2 cells assessed as inhibition of cell proliferation incubated for 72 hrs by MTT assay; assay type: functional, cell-based; settings: HepG2, 72 h
DU-145 = test: Cytotoxicity against p53 mutant human DU-145 cells assessed as inhibition of cell proliferation incubated for 72 hrs by MTT assay; assay type: functional, cell-based; settings: DU-145, 72 h
MIA PaCa-2 [6] = test: Cytotoxicity against p53 mutant human MIA PaCa-2 cells assessed as inhibition of cell proliferation incubated for 72 hrs by MTT assay; assay type: functional, cell-based; settings: MIA PaCa-2, 72 h
MIA PaCa-2 [7] = test: Cytotoxicity against human MIA PaCa-2 cells assessed as inhibition of cell proliferation incubated for 72 hrs by MTT assay; assay type: functional, cell-based; settings: MIA PaCa-2, 72 h
MIA PaCa-2 [8] = test: Cytotoxicity against p53 wild-type human MIA PaCa-2 cells assessed as inhibition of cell proliferation incubated for 72 hrs by MTT assay; assay type: functional, cell-based; settings: MIA PaCa-2, 72 h
[9] = Cytotoxicity against human HS27 cells assessed as inhibition of cell proliferation incubated for 72 hrs by MTT assay; assay type: toxicity, cell-based
[10] = Cytotoxicity against human IMR-90 cells assessed as inhibition of cell proliferation incubated for 72 hrs by MTT assay; assay type: toxicity, cell-based
LoVo [11] = test: Induction of cell death in human LoVo cells assessed as accumulation of cells in the cell cycle at 20 uM incubated for 24 hrs by PI staining based flow cytometry analysis; assay type: functional
LoVo [12] = test: Induction of cell death in human LoVo cells assessed as increase in the number of cells with a sub-G1 DNA content at 20 uM incubated for 24 hrs by PI staining based flow cytometry analysis; assay type: functional
LoVo [13] = test: Induction of cell death in human LoVo cells assessed as sub-G1 phase of the cell cycle at 20 uM incubated for 24 hrs by TUNEL staining based flow cytometry analysis; assay type: functional
LoVo [14] = test: Induction of cell death in human LoVo cells assessed as G1 phase of the cell cycle at 20 uM incubated for 24 hrs by TUNEL staining based flow cytometry analysis; assay type: functional
LoVo [15] = test: Induction of cell death in human LoVo cells assessed as S phase of the cell cycle at 20 uM incubated for 24 hrs by TUNEL staining based flow cytometry analysis; assay type: functional
LoVo [16] = test: Induction of cell death in human LoVo cells assessed as G2/M phase of the cell cycle at 20 uM incubated for 24 hrs by TUNEL staining based flow cytometry analysis; assay type: functional
LoVo [17] = test: Induction of cell death in human LoVo cells assessed as total cell numbers at 20 uM incubated after 8 hrs by TUNEL staining based flow cytometry analysis; assay type: functional
LoVo [18] = test: Induction of cell death in human LoVo cells assessed as increase in total cell numbers at 20 uM incubated upto 24 hrs by TUNEL staining based flow cytometry analysis; assay type: functional
LoVo [19] = test: Induction of cell death in human LoVo cells assessed as decrease in total cell numbers at 20 uM incubated for 48 hrs by TUNEL staining based flow cytometry analysis; assay type: functional
LoVo [20] = test: Antitumor activity against human Lovo cells xenografted CD1 nude mouse assessed as relative tumor volume at 100 mg/kg, ip administered 3 times per day at 8 hrs intervals for 5 days; assay type: functional; settings: time 5 day
LoVo [21] = test: Antitumor activity against human Lovo cells xenografted CD1 nude mouse assessed as reduction in tumor volume at 100 mg/kg, ip administered 3 times per day at 8 hrs intervals for 5 days relative to control; assay type: functional; design: scale not given: the % may be the effect or the level left; settings: time 5 day
LoVo [22] = test: Antitumor activity against human Lovo cells xenografted CD1 nude mouse assessed as low tumor volume at 100 mg/kg, ip administered 3 times per day at 8 hrs intervals for 16 days; assay type: functional, organism-based; settings: time 16.0 day
LoVo [23] = test: Antitumor activity against human Lovo cells xenografted CD1 nude mouse assessed as low tumor volume at 100 mg/kg, ip administered 3 times per day at 8 hrs intervals for 19 days; assay type: functional, organism-based; settings: time 19.0 day
LoVo [24] = test: Antitumor activity against human Lovo cells xenografted CD1 nude mouse assessed as low tumor volume at 100 mg/kg, ip administered 3 times per day at 8 hrs intervals for 24 days; assay type: functional, organism-based; settings: time 24.0 day
LoVo [25] = test: Antitumor activity against human Lovo cells xenografted CD1 nude mouse assessed as low tumor volume at 100 mg/kg, ip administered 3 times per day at 8 hrs intervals for 32 days; assay type: functional, organism-based; settings: time 32.0 day
LoVo [26] = test: Antitumor activity against human Lovo cells xenografted CD1 nude mouse assessed as T/C ratio at 100 mg/kg, ip administered 3 times per day at 8 hrs intervals for 5 days relative to control; assay type: functional; settings: time 5 day
LoVo [27] = test: Antitumor activity against human Lovo cells xenografted CD1 nude mouse assessed as time for tumor growth delay at 100 mg/kg, ip administered 3 times per day at 8 hrs intervals for 5 days; assay type: functional; settings: time 5 day
MES-SA/Dx5 [28] = test: Antitumor activity against human MES-SA/Dx5 cells xenografted CD1 nude mouse assessed as tumor volume at 500 mg/kg, po administered 3 times per day at 8 hrs intervals and measured on 4 day; assay type: functional, organism-based
MES-SA/Dx5 [29] = test: Antitumor activity against human MES-SA/Dx5 cells xenografted CD1 nude mouse assessed as T/C ratio at 500 mg/kg, po administered 3 times per day at 8 hrs intervals and measured at 11 day relative to control; assay type: functional
MES-SA/Dx5 [30] = test: Antitumor activity against human MES-SA/Dx5 cells xenografted CD1 nude mouse assessed as time for tumor growth delay at 500 mg/kg, po administered 3 times per day at 8 hrs intervals for 4 days; assay type: functional; settings: time 4 day
MES-SA/Dx5 [31] = test: Antitumor activity against human MES-SA/Dx5 cells xenografted CD1 nude mouse assessed as tumor volume at 500 mg/kg, po administered 3 times per day at 8 hrs intervals and measured on 7 day; assay type: functional, organism-based
MES-SA/Dx5 [32] = test: Antitumor activity against human MES-SA/Dx5 cells xenografted CD1 nude mouse assessed as tumor volume at 500 mg/kg, po administered 3 times per day at 8 hrs intervals and measured on 11 day; assay type: functional, organism-based
MES-SA/Dx5 [33] = test: Antitumor activity against human MES-SA/Dx5 cells xenografted CD1 nude mouse assessed as time for tumor growth delay at 200 mg/kg, po administered 3 times per day at 8 hrs intervals for 10 days; assay type: functional; settings: time 10 day
MES-SA/Dx5 [34] = test: Antitumor activity against human MES-SA/Dx5 cells xenografted CD1 nude mouse assessed as T/C ratio at 200 mg/kg, po administered 3 times per day at 8 hrs intervals for 10 days and measured at day 11 relative to control; assay type: functional; settings: time 11 day
MES-SA/Dx5 [35] = test: Antitumor activity against human MES-SA/Dx5 cells xenografted CD1 nude mouse assessed as reduction in tumor volume at 200 mg/kg, po administered 3 times per day at 8 hrs intervals and measured upto 16 days; assay type: functional, organism-based; settings: time <= 16.0 day
HCT-116 = test: cells; settings: Homo sapiens, HCT-116, 72 h

Sequence of Mitogen-activated protein kinase 14 (Homo sapiens) (Q16539 whole entry): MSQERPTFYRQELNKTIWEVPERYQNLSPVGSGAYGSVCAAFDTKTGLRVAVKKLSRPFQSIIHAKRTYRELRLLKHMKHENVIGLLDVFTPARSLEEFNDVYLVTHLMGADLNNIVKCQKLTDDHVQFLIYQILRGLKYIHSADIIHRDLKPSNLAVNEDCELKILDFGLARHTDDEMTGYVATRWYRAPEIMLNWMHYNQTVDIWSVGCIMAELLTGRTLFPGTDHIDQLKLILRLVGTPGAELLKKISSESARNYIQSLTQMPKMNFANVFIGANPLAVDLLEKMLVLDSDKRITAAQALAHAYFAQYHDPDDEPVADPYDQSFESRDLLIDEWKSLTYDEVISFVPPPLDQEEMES

CC[C@H](CO)Nc1nc(NCc2ccccc2)c2ncn(C(C)C)c2n1 [SELICICLIB]
inhibition [1]: inactive
inhibition [2]: inactive
inhibition [3]: inactive
IC50 (A549): 15.9 µM
IC50 (ChaGo-K-1): 30.2 µM
IC50 (NCI-H69): 26 µM
IC50 (NCI-H460): 13.1 µM
IC50 (LoVo [4]): 9.3 µM
IC50 (HCT-15): 18.3 µM
IC50 (HT-29): 14.6 µM
IC50 (A498): 13.2 µM
IC50 (ACHN): 11.9 µM
IC50 (HT-1376): 18.4 µM
IC50 (MES-SA): 11.9 µM
IC50 (MES-SA/Dx5 [5]): 7.9 µM
IC50 (HepG2): 11.3 µM
IC50 (DU-145): 18.8 µM
IC50 (MIA PaCa-2 [6]): 13.9 µM
IC50 (MIA PaCa-2 [7]): 15.2 µM
IC50 (MIA PaCa-2 [8]): 12 µM
IC50 at 72 h [9]: 22.2 µM
IC50 at 72 h [10]: > 100 µM
Activity (LoVo [11]): inactive
Activity (LoVo [12]): Active
Activity (LoVo [13]): Active
Activity (LoVo [14]): Active
Activity (LoVo [15]): Active
Activity (LoVo [16]): Active
Activity (LoVo [17]): Active
Activity (LoVo [18]): Active
Activity (LoVo [19]): Active
Activity (LoVo [20]): 4.8
Activity (LoVo [21]): 44.8%
Activity (LoVo [22]): Active
Activity (LoVo [23]): Active
Activity (LoVo [24]): Active
Activity (LoVo [25]): Active
T/C (LoVo [26]): 58.3%
Time (LoVo [27]): 1.4 days
Activity (MES-SA/Dx5 [28]): Active
T/C (MES-SA/Dx5 [29]): 47.3%
Time (MES-SA/Dx5 [30]): 1.7 days
Activity (MES-SA/Dx5 [31]): Active
Activity (MES-SA/Dx5 [32]): Active
Time (MES-SA/Dx5 [33]): 1.3 days
Activity (MES-SA/Dx5 [34]): 85.7%
Activity (MES-SA/Dx5 [35]): inactive
IC50 (HCT-116): 10.7 µM
